Measurements published in ChEMBL document CHEMBL4184216, “Diversity oriented synthesis of chromene-xanthene hybrids as anti-breast cancer agents” (Bioorg Med Chem Lett, 2018).
Counter-ions that a name gives are not always drawn. Active and inactive are the calls of the source. The calls are words filed in the database; no cut-off is given here.

How the values were obtained:
MDA-MB-231 [1] = assay: Cell cycle arrest in human MDA-MB-231 cells assessed as increase in accumulation at subG1 phase at 0.125 uM incubated for 24 hrs by propidium iodide staining based flow cytometry; assay type: functional
MCF7 = assay: Cytotoxicity against human MCF7 cells assessed as reduction in cell viability incubated for 24 hrs by MTT assay; assay type: functional, cell-based; details: MCF7, 24 h
MDA-MB-231 [2] = assay: Cytotoxicity against human MDA-MB-231 cells assessed as reduction in cell viability incubated for 24 hrs by MTT assay; assay type: functional, cell-based; details: MDA-MB-231, 24 h
HEK293 = assay: Cytotoxicity against HEK293 cells assessed as reduction in cell viability incubated for 24 hrs by MTT assay; assay type: ADME, cell-based; details: Homo sapiens, HEK293, 24 h
MDA-MB-231 [3] = assay: Cell cycle arrest in human MDA-MB-231 cells assessed as increase in accumulation at G1 phase at 0.125 to 0.25 uM incubated for 24 hrs by propidium iodide staining based flow cytometry; assay type: functional
MDA-MB-231 [4] = assay: Cell cycle arrest in human MDA-MB-231 cells assessed as reduction in accumulation at G2/M phase at 0.125 to 0.25 uM incubated for 24 hrs by propidium iodide staining based flow cytometry; assay type: functional
MDA-MB-231 [5] = assay: Induction of apoptosis in human MDA-MB-231 cells at 0.125 to 0.25 uM incubated for 24 hrs by Annexin V-FITC/propidium iodide staining based flow cytometry; assay type: functional, cell-based

Row | Structure (SMILES) | Activity (MDA-MB-231 [1]) | IC50 (MCF7) [µM] | IC50 (MDA-MB-231 [2]) [µM] | IC50 (HEK293) [µM] | Activity (MDA-MB-231 [3]) | Activity (MDA-MB-231 [4]) | Activity (MDA-MB-231 [5])
1 | COc1ccccc1C1C2=C(Oc3ccc(C[C@H](N)CO)cc31)c1ccccc1OC2(C)C (stereo not given in full) | Active | 2.6 | 2.5 | > 25 | Active | Active | Dose-dependent effect
2 | COc1ccccc1C1C2=C(Sc3ccc(Cl)cc31)c1ccccc1OC2(C)C (stereo not given) |  | 39.5 | 48.6 | > 25 |  |  | 
3 | CC1(C)Oc2ccccc2C2=C1C(c1cccs1)c1cc(Cl)ccc1S2 (stereo not given) |  | 22.3 | 29 | > 25 |  |  | 
4 | COc1ccc2c(c1)C(c1ccc(SC)cc1)C1=C(O2)c2ccccc2OC1(C)C (stereo not given) |  | 20 | 17.1 | > 25 |  |  | 
5 | COc1ccc(C2C3=C(Sc4ccc(Cl)cc42)c2ccccc2OC3(C)C)cc1 (stereo not given) |  | 39 | 19.1 | > 25 |  |  | 
6 | CSc1ccc(C2C3=C(Oc4ccc(C[C@@H](CO)NC(=O)OC(C)(C)C)cc42)c2ccccc2OC3(C)C)cc1 (stereo not given in full) |  | 32 | 21.1 | > 25 |  |  | 
7 | COc1cccc2c1C(c1cccs1)C1=C(S2)c2ccccc2OC1(C)C (stereo not given) |  | 26.3 | 29 | > 25 |  |  | 
8 | COc1ccccc1C1C2=C(Oc3ccc(C[C@H]4COC(C)(C)N4C(=O)OC(C)(C)C)cc31)c1ccccc1OC2(C)C (stereo not given in full) |  | 22.3 | 29 | > 25 |  |  | 
9 | COc1cccc(C2C3=C(Oc4ccc(C[C@@H](CO)NC(=O)OC(C)(C)C)cc42)c2ccccc2OC3(C)C)c1 (stereo not given in full) |  | 29.9 | 2.9 | > 25 |  |  | 
10 | COc1cccc(C2C3=C(Oc4ccc(C[C@H](N)CO)cc42)c2ccccc2OC3(C)C)c1 (stereo not given in full) |  | 2.1 | 3.5 | > 25 |  |  | 
11 | CC/C(=C(\c1ccccc1)c1ccc(OCCN(C)C)cc1)c1ccccc1 [TAMOXIFEN CITRATE] |  |  |  | 30 |  |  | 
